Key:
Assay in all cases: relative viability (nuclei count vs DMSO), 5 days (fraction); higher = more cells survive
[1] = compound: O=c1[nH]cc(F)c(=O)[nH]1 [5-Fluorouracil] + N=C(N)NC(=N)NCCc1ccccc1 [Phenformin] (partner 250 µM)
Procedure, shortened: (§1)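 Lung cancer cell lines, seeded in 1536-well plates, were treated the following day by pin tool with a single drug or with five library-drug doses (not always all listed) in √10 steps on top of a fixed anchor-drug dose. Cells were fixed and nuclei stained in one step after 5 days, and nuclei were counted. Relative viability is the nuclei count for treated wells divided by that for vehicle wells, reported as medians of duplicate plates.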

[2] = compound: CN[C@@H]1C[C@H]2O[C@@](C)([C@@H]1OC)n1c3ccccc3c3c4c(c5c6ccccc6n2c5c31)C(=O)NC4 [Staurosporine] + CS(=O)(=O)CCNCc1ccc(-c2ccc3ncnc(Nc4ccc(OCc5cccc(F)c5)c(Cl)c4)c3c2)o1 [Lapatinib] (partner 2 µM)
Procedure, shortened: as §1

Sulindac + Phenformin = compound: CC1=C(CC(=O)O)c2cc(F)ccc2/C1=C\c1ccc([S+](C)[O-])cc1 [Sulindac] + N=C(N)NC(=N)NCCc1ccccc1 [Phenformin] (partner 250 µM)
Procedure, shortened: as §1

[3] = compound: O=c1[nH]cc(F)c(=O)[nH]1 [5-Fluorouracil] + O=C(c1cc(Cc2n[nH]c(=O)c3ccccc23)ccc1F)N1CCN(C(=O)C2CC2)CC1 [Olaparib] (partner 8 µM)
Procedure, shortened: as §1

| Cell Line | relative viability ([1]; first compound 0.02 µM) | relative viability ([1]; first compound 0.2 µM) | relative viability ([1]; first compound 0.6325 µM) | relative viability ([1]; first compound 2 µM) | relative viability ([2]; first compound 0.005 µM) | relative viability ([2]; first compound 0.01581 µM) | relative viability ([2]; first compound 0.05 µM) | relative viability ([2]; first compound 0.1581 µM) | relative viability ([2]; first compound 0.5 µM) | relative viability (Sulindac + Phenformin; first compound 0.08 µM) | relative viability (Sulindac + Phenformin; first compound 0.253 µM) | relative viability (Sulindac + Phenformin; first compound 0.8 µM) | relative viability (Sulindac + Phenformin; first compound 2.53 µM) | relative viability (Sulindac + Phenformin; first compound 8 µM) | relative viability ([3]; first compound 0.02 µM) | relative viability ([3]; first compound 0.6325 µM) | relative viability ([3]; first compound 2 µM) | relative viability ([3]; first compound 0.2 µM) |
| --- | --- | --- | --- | --- | --- | --- | --- | --- | --- | --- | --- | --- | --- | --- | --- | --- | --- | --- |
| 201T | 0.423 | 0.378 | 0.288 | 0.297 | 1.04 | 0.957 | 0.948 | 0.895 | 0.637 | 0.478 | 0.435 | 0.314 | 0.451 | 0.486 | 0.82 | 0.252 | 0.249 | – |
| A549 | 0.172 | 0.258 | 0.153 | 0.0868 | 0.823 | 0.715 | 0.499 | 0.0558 | 0.0481 | 0.109 | 0.154 | 0.95 | 0.232 | 0.244 | 0.298 | 0.202 | 0.0825 | 0.501 |
| A-427 | 0.29 | 0.461 | 0.279 | 0.212 | 0.967 | 0.245 | 0.56 | 0.303 | 0.175 | 0.332 | 0.324 | 0.248 | 0.334 | 0.354 | 0.68 | 0.674 | 0.385 | 0.521 |
| ABC-1 | 0.202 | 0.253 | 0.257 | 0.23 | 0.953 | 0.799 | 0.608 | 0.339 | 0.502 | 0.23 | 0.214 | 0.209 | 0.255 | 0.226 | 0.782 | 1 | 0.51 | 0.716 |
| BEN | 0.255 | 0.257 | 0.285 | 0.251 | 0.656 | 0.449 | 0.381 | 0.198 | 0.207 | 0.284 | 0.276 | 0.227 | 0.218 | 0.275 | 1.01 | 0.907 | 0.913 | 0.851 |
| CAL-12T | 0.616 | 0.614 | 0.37 | 0.425 | 0.356 | 0.198 | 0.214 | 0.192 | 0.194 | 0.662 | 0.615 | 0.418 | 0.529 | 0.681 | 0.701 | 0.638 | 0.365 | 0.634 |
| COR-L23 | 0.4 | 0.427 | 0.278 | 0.228 | 0.695 | 0.31 | 0.241 | 0.0931 | 0.0662 | 0.506 | 0.487 | 0.339 | 0.51 | 0.549 | 0.36 | 0.273 | 0.18 | 0.312 |
| COR-L 105 | 0.452 | 0.495 | 0.45 | 0.337 | 0.354 | 0.247 | 0.247 | 0.243 | 0.218 | 0.456 | 0.477 | 0.417 | 0.564 | 0.558 | 0.713 | 0.58 | 0.512 | 0.792 |

Source: the supplement of paper PMC10307832
